Source: ChEMBL document CHEMBL5230136, “A review: Biologically active 3,4-heterocycle-fused coumarins” (Eur J Med Chem, 2021)
≈ marks a conversion by molar mass, not a printed value. Where “and” joins values, the source holds several entries; their conditions need not be identical. Equal entries are not always repeated.

Key:
[1] = Inhibition of HIV-1 integrase; set-up: species or system Human immunodeficiency virus 1
[2] = system: MCF7; assay: Anticancer activity against human MCF7 cells assessed as reduction in cell viability; assay type: functional, cell-based
[3] = system: A549; assay: Anticancer activity against human A549 cells assessed as inhibition of cell proliferation measured after 48 hrs by MTT assay; assay type: functional, cell-based; settings: A549, 48 h
[4] = system: Plasmodium falciparum; assay: Antimalarial activity against Plasmodium falciparum by LDH assay; assay type: functional, organism-based
[5] = system: Plasmodium falciparum; assay: Antimalarial activity against Plasmodium falciparum Dd2 by HRP2 assay; assay type: functional, organism-based
[6] = Antioxidant activity assessed as DPPH radical scavenging activity; assay type: functional
[7] = system: HepG2; assay: Anticancer activity against human HepG2 cells by MTT assay; assay type: functional, cell-based
[8] = Antioxidant activity assessed as FRAP radical activity by FRAP assay; assay type: functional
[9] = system: Aspergillus flavus; assay: Antifungal activity against Aspergillus flavus assessed as zone of inhibition at 20 mg/ml; assay type: functional; settings: read-out: IZ
[10] = system: Fusarium oxysporum; assay: Antifungal activity against Fusarium oxysporum assessed as zone of inhibition at 20 mg/ml; assay type: functional; settings: read-out: IZ
[11] = system: Staphylococcus aureus; assay: Antibacterial activity against Staphylococcus aureus assessed as zone of inhibition at 20 mg/ml; assay type: functional; settings: read-out: IZ
[12] = system: Escherichia coli; assay: Antibacterial activity against Escherichia coli assessed as zone of inhibition at 20 mg/ml; assay type: functional; settings: read-out: IZ
[13] = system: Pseudomonas aeruginosa; assay: Antibacterial activity against Pseudomonas aeruginosa assessed as zone of inhibition at 20 mg/ml; assay type: functional; settings: read-out: IZ
[14] = system: Serratia marcescens; assay: Antibacterial activity against Serratia marcescens assessed as zone of inhibition at 20 mg/ml; assay type: functional; settings: read-out: IZ
[15] = system: Micrococcus luteus; assay: Antibacterial activity against Micrococcus luteus assessed as zone of inhibition at 20 mg/ml; assay type: functional; settings: read-out: IZ
[16] = system: Trichophyton rubrum; assay: Antifungal activity against Trichophyton rubrum assessed as zone of inhibition at 20 mg/ml; assay type: functional; settings: read-out: IZ
[17] = system: Geotrichum candidum; assay: Antifungal activity against Geotrichum candidum assessed as zone of inhibition at 20 mg/ml; assay type: functional; settings: read-out: IZ
[18] = system: Geotrichum candidum; assay: Antimicrobial activity against Geotrichum candidum assessed as zone of inhibition at 50 uM; assay type: functional; settings: read-out: IZ
[19] = system: Candida albicans; assay: Antifungal activity against Candida albicans assessed as zone of inhibition at 20 mg/ml; assay type: functional; settings: read-out: IZ
[20] = system: Bacillus cereus; assay: Antibacterial activity against Bacillus cereus assessed as zone of inhibition at 20 mg/ml; assay type: functional; settings: read-out: IZ
[21] = system: Scopulariopsis; assay: Antifungal activity against Scopulariopsis assessed as zone of inhibition at 20 mg/ml; assay type: functional; settings: read-out: IZ
[22] = system: MCF7; assay: Antiproliferative activity against human MCF7 cells assessed as inhibition of cell proliferation measured after 96 hrs by SRB assay; assay type: functional, cell-based; settings: MCF7, 96 h
[23] = system: LS180; assay: Anticancer activity against human LS180 assessed as inhibition in cell viability; assay type: functional, cell-based
[24] = Cytotoxicity against human MRC5 cells assessed as reduction in cell viability measured after 72 hrs by MTT assay; assay type: toxicity, cell-based
[25] = system: MES-SA; assay: Cytotoxicity against human MES-SA cells assessed as reduction in cell viability incubated for 72 hrs by MTT assay; assay type: functional, cell-based
[26] = system: Botrytis cinerea; assay: Antifungal activity against Botrytis cinerea; assay type: functional, organism-based
[27] = system: Colletotrichum camelliae; assay: Antifungal activity against Colletotrichum camelliae; assay type: functional, organism-based
[28] = system: Botrytis cinerea; assay: Antifungal activity against Botrytis cinerea assessed as inhibition of fungal growth incubated for 24 hrs by standard broth dilution assay; assay type: functional, organism-based
[29] = system: L1210; assay: Cytotoxicity against […] cells assessed as reversal of multi drug resistance at 1 uM; assay type: functional, cell-based; settings: Mus musculus
[30] = system: HCT-116/VM46; assay: cells; settings: Homo sapiens
[31] = system: HCT-116/VM46; assay: Anticancer activity against Multi drug resistant human HCT-116/VM46 cells assessed as inhibition of cell growth; assay type: functional, cell-based
[32] = Inhibition of wild type HIV-1 protease; set-up: species or system Human immunodeficiency virus
[33] = system: Candida albicans; assay: Antifungal activity against Candida albicans assessed as reduction in fungal growth; assay type: functional
[34] = molecular target: Dopamine receptors; D2 & D4 (Homo sapiens, UniProt P14416+P21917); assay: Binding affinity to human D2/D4 receptor assessed as inhibition constant; assay type: protein assay
[35] = molecular target: D(4) dopamine receptor (Homo sapiens, UniProt P21917); assay: Binding affinity to D4 receptor (unknown origin) assessed as inhibition constant
[36] = system: Serratia marcescens; assay: Antibacterial activity against Serratia marcescens assessed as zone of inhibition; assay type: functional
[37] = system: Penicillium chrysogenum; assay: Antifungal activity against Penicillium chrysogenum assessed as zone of inhibition; assay type: functional
[38] = system: Staphylococcus aureus; assay: Antibacterial activity against Staphylococcus aureus assessed as zone of inhibition; assay type: functional
[39] = system: Aspergillus ochraceus; assay: Antifungal activity against Aspergillus ochraceus assessed as zone of inhibition at 20 ug/ml; assay type: functional; settings: read-out: IZ
[40] = system: Bacillus cereus; assay: Antibacterial activity against Bacillus cereus assessed as zone of inhibition; assay type: functional
[41] = system: Aspergillus ochraceus; assay: Antifungal activity against Aspergillus ochraceus assessed as zone of inhibition; assay type: functional
[42] = system: Proteus mirabilis; assay: Antibacterial activity against Proteus mirabilis assessed as zone of inhibition; assay type: functional

D(4) dopamine receptor, sequence (P21917 whole entry): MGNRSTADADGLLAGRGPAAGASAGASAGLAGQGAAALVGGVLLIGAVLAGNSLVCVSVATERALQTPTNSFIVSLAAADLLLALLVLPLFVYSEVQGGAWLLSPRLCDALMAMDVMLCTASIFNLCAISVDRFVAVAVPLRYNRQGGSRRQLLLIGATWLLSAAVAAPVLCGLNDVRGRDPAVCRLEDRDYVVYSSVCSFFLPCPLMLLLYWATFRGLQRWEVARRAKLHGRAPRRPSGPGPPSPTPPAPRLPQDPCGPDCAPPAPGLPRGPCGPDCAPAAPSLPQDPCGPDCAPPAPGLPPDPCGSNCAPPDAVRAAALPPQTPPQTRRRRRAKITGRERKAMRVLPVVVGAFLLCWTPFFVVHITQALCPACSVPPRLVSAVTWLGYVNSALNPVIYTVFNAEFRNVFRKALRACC

COc1ccc(-c2c3c4cc(OC)c(OS(=O)(=O)O)cc4oc(=O)c3n3ccc4cc(OC)c(OC)cc4c23)cc1O
IC50 [1]: 8 µM

Cc1c(-c2nnn[nH]2)c(=O)oc2c1c(=O)oc1ccccc12
IC50 [2]: 49 µM

Cc1ccc2c(c1)C(c1ccccc1)c1c(c3ccccc3oc1=O)N2 (centres undefined)
IC50 [3]: 0.05 µM

CCN(CC)CCCC(C)Nc1cc2c(c(C)n1)c(=O)oc1ccccc12 (centres undefined)
IC50 [4]: 1.1 µM
IC50 [5]: 1.1 µM

O=c1oc2ccccc2c2c1C(c1ccc(Br)cc1O)SCCN2 (stereo in doubt; 203c)
IC50 [6]: 290 µM
IC50 [7]: 290 µM
IC50 [8]: 0.186 µM

CCOC(=O)c1sc2c(c1NC(=O)CNc1ccc(S(N)(=O)=O)cc1)c(=O)oc1ccccc12
zone of inhibition at 20000 µg/mL [9]: 0 mm
zone of inhibition at 20000 µg/mL [10]: 0 mm
zone of inhibition at 20000 µg/mL [11]: 9 mm
zone of inhibition at 20000 µg/mL [12]: 9 mm
zone of inhibition at 20000 µg/mL [13]: 0 mm
zone of inhibition at 20000 µg/mL [14]: 0 mm
zone of inhibition at 20000 µg/mL [15]: 0 mm
zone of inhibition at 20000 µg/mL [16]: 0 mm
zone of inhibition at 20000 µg/mL [17]: 10 mm
zone of inhibition at 50 µM [18]: 10 mm
zone of inhibition at 20000 µg/mL [19]: 0 mm
zone of inhibition at 20000 µg/mL [20]: 0 mm
zone of inhibition at 20000 µg/mL [21]: 0 mm

O=C1CCCC(=O)C1
IC50 [22]: 100 µM
IC50 [23]: > 100 µM

COc1cc2c(cc1O)oc(=O)c1c2c(-c2ccc(OC)c(OC)c2)c2c3cc(OC)c(O)cc3ccn21
IC50 at 72 h [24]: > 97 µM

O=[Se](O)O [SODIUM SELENITE]
IC50 [25]: 29 µM

Cc1oc2c(c1C)c(=O)oc1cc(OC(C)C)ccc12
EC50 [26]: 1.72 µg/mL (≈ 6.32 µM)
EC50 [27]: 6.02 µg/mL (≈ 22.1 µM)
EC50 [28]: 1.72 µM

COc1ccc(CCn2cc(-c3ccc(OC)c(OC)c3)c3c4cc(OC)c(OC)cc4oc(=O)c32)cc1OC
IC50 [29]: 50 µM
IC50 [30]: 40 µM
IC50 [31]: 40 µM

O=c1oc2ccccc2c2c1C(c1ccc(Br)cc1O)SCCN2 (stereo in doubt; 200)
IC50 [7]: 58 µM

COc1ccc(-c2c3c4cc(OC)c(O)cc4oc(=O)c3n3ccc4cc(O)c(OC)cc4c23)cc1O
IC50 [32]: 8 µM

O=c1c(O)c(-c2ccc(O)c(O)c2)oc2cc(O)cc(O)c12 [QUERCETIN]
IC50 [8]: 53900 µM

COc1cccc2cc(-c3ccc4c(=O)oc5c(C)cccc5c4n3)c(=O)oc12
MIC [33]: 1000 µg/mL (≈ 2590 µM)

COc1ccc2c3c(c(=O)oc2c1)CN(Cc1ccncc1)CC3
Ki [34]: 0.078 µM
Ki [35]: 0.0015 µM

O=C1CN=C2C3=C(N=CN2N1)Oc1c(c(=O)oc2ccccc12)C3
inhibition zone (IZ) [36]: 21 mm
inhibition zone (IZ) [37]: 19 mm and 22 mm
inhibition zone (IZ) [38]: 20 mm
zone of inhibition at 20 µg/mL [39]: 22 mm
inhibition zone (IZ) [40]: 22 mm
inhibition zone (IZ) [41]: 20 mm
inhibition zone (IZ) [42]: 22 mm
